Measured values as given in PubChem BioAssay AID1963985 (Molecular Pharmacology Branch, DTP, NCI, 2024).

System: 252836-082-R-J2-PDC tumor spheroids, viability
Test: Anticancer human tumor 252836-082-R-J2-PDC patient-derived head and neck squamous cell carcinoma cell line growth inhibition [PI3K]
Settings: spheroids with HUVEC and MSC; for IC50: curve of first compound; for viability, T/C: stronger effect = lower value
In short: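 Spheroid viability read-out. Co-cultures contained the tumor line plus HUVEC and human MSCs. Each agent was paired with a PI3K inhibitor (inavolisib, alpelisib, duvelisib, copanlisib) across half-log dilutions starting at clinical Cmax, or at 10 microM when Cmax was unknown.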

[1] = second compound 0.00316 µM, first compound 0.0316 µM
[2] = second compound 0.00316 µM, first compound 0.1 µM
[3] = second compound 0.00316 µM, first compound 0.316 µM
[4] = second compound 0.00316 µM, first compound 1 µM
[5] = second compound 0.00316 µM, first compound 3.16 µM
[6] = second compound 0.00316 µM, first compound 10 µM
[7] = second compound 0.01 µM, first compound 0.0316 µM
[8] = second compound 0.01 µM, first compound 0.1 µM
[9] = second compound 0.01 µM, first compound 0.316 µM
[10] = second compound 0.01 µM, first compound 1 µM
[11] = second compound 0.01 µM, first compound 3.16 µM
[12] = second compound 0.01 µM, first compound 10 µM
[13] = second compound 0.0316 µM, first compound 0.0316 µM
[14] = second compound 0.0316 µM, first compound 0.1 µM
[15] = second compound 0.0316 µM, first compound 0.316 µM
[16] = second compound 0.0316 µM, first compound 1 µM
[17] = second compound 0.0316 µM, first compound 3.16 µM
[18] = second compound 0.0316 µM, first compound 10 µM
[19] = second compound 0.1 µM, first compound 0.0316 µM
[20] = second compound 0.1 µM, first compound 0.1 µM
[21] = second compound 0.1 µM, first compound 0.316 µM
[22] = second compound 0.1 µM, first compound 1 µM
[23] = second compound 0.1 µM, first compound 3.16 µM
[24] = second compound 0.1 µM, first compound 10 µM
[25] = second compound 0.316 µM, first compound 0.0316 µM
[26] = second compound 0.316 µM, first compound 0.1 µM
[27] = second compound 0.316 µM, first compound 0.316 µM
[28] = second compound 0.316 µM, first compound 1 µM
[29] = second compound 0.316 µM, first compound 3.16 µM
[30] = second compound 0.316 µM, first compound 10 µM
[31] = second compound 1 µM, first compound 0.0316 µM
[32] = second compound 1 µM, first compound 0.1 µM
[33] = second compound 1 µM, first compound 0.316 µM
[34] = second compound 1 µM, first compound 1 µM
[35] = second compound 1 µM, first compound 3.16 µM
[36] = second compound 1 µM, first compound 10 µM
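Also: spheroids exposed to agents for seven days before readout.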
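For viability, T/C in this document: percent of vehicle DMSO control viability so 100% = untreated growth.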

C=CC(=O)N1CCN(c2nc(=O)n(-c3c(C)ccnc3C(C)C)c3nc(-c4c(O)cccc4F)c(F)cc23)C(C)C1 (stereo unspecified) + COc1c(OCCCN2CCOCC2)ccc2c3n(c(=NC(=O)c4cnc(N)nc4)nc12)CCN3
IC50 (second compound 0.00316 µM): > 10 µM
IC50 (second compound 0.01 µM): > 10 µM
IC50 (second compound 0.0316 µM): > 10 µM
IC50 (second compound 0.1 µM): < 0.0316 µM
IC50 (second compound 0.316 µM): < 0.0316 µM
IC50 (second compound 1 µM): < 0.0316 µM
viability, T/C [1]: 92.7%
viability, T/C [2]: 94.5%
viability, T/C [3]: 96.1%
viability, T/C [4]: 99.7%
viability, T/C [5]: 118%
viability, T/C [6]: 94.9%
viability, T/C [7]: 74.4%
viability, T/C [8]: 73.8%
viability, T/C [9]: 89.2%
viability, T/C [10]: 88.7%
viability, T/C [11]: 98.2%
viability, T/C [12]: 82.2%
viability, T/C [13]: 63%
viability, T/C [14]: 56.9%
viability, T/C [15]: 55.3%
viability, T/C [16]: 75.8%
viability, T/C [17]: 77.4%
viability, T/C [18]: 73.3%
viability, T/C [19]: 36%
viability, T/C [20]: 34.6%
viability, T/C [21]: 34.9%
viability, T/C [22]: 45.1%
viability, T/C [23]: 45.1%
viability, T/C [24]: 42.8%
viability, T/C [25]: 19.2%
viability, T/C [26]: 17.3%
viability, T/C [27]: 22.8%
viability, T/C [28]: 17.3%
viability, T/C [29]: 20.8%
viability, T/C [30]: 15.9%
viability, T/C [31]: 5.1%
viability, T/C [32]: 5.86%
viability, T/C [33]: 5.59%
viability, T/C [34]: 5.93%
viability, T/C [35]: 7.35%
viability, T/C [36]: 3.61%

C=CC(=O)N1CCN(c2nc(=O)n(-c3c(C)ccnc3C(C)C)c3nc(-c4c(O)cccc4F)c(F)cc23)C(C)C1 (stereo unspecified) + Cc1nc(NC(=O)N2CCCC2C(N)=O)sc1-c1ccnc(C(C)(C)C(F)(F)F)c1
IC50 (second compound 0.0316 µM): > 10 µM
IC50 (second compound 0.1 µM): > 10 µM
IC50 (second compound 0.316 µM): > 10 µM
IC50 (second compound 1 µM): > 10 µM
IC50 (second compound 3.16 µM): < 0.0316 µM
IC50 (second compound 10 µM): < 0.0316 µM
viability, T/C [13]: 101%
viability, T/C [14]: 87.1%
viability, T/C [15]: 104%
viability, T/C [16]: 95.7%
viability, T/C [17]: 107%
viability, T/C [18]: 107%
viability, T/C [19]: 78.5%
viability, T/C [20]: 82.1%
viability, T/C [21]: 101%
viability, T/C [22]: 79.5%
viability, T/C [23]: 105%
viability, T/C [24]: 95.8%
viability, T/C [25]: 79.9%
viability, T/C [26]: 83.2%
viability, T/C [27]: 76%
viability, T/C [28]: 86.5%
viability, T/C [29]: 84.5%
viability, T/C [30]: 80.9%
viability, T/C [31]: 61.2%
viability, T/C [32]: 60.4%
viability, T/C [33]: 80.3%
viability, T/C [34]: 73%
viability, T/C [35]: 64.9%
viability, T/C [36]: 75.9%
viability, T/C (second compound 3.16 µM, first compound 0.0316 µM): 47.2%
viability, T/C (second compound 3.16 µM, first compound 0.1 µM): 49.1%
viability, T/C (second compound 3.16 µM, first compound 0.316 µM): 50.2%
viability, T/C (second compound 3.16 µM, first compound 1 µM): 49.2%
viability, T/C (second compound 3.16 µM, first compound 3.16 µM): 74%
viability, T/C (second compound 3.16 µM, first compound 10 µM): 44.9%
viability, T/C (second compound 10 µM, first compound 0.0316 µM): 37.2%
viability, T/C (second compound 10 µM, first compound 0.1 µM): 34.5%
viability, T/C (second compound 10 µM, first compound 0.316 µM): 36.3%
viability, T/C (second compound 10 µM, first compound 1 µM): 36.5%
viability, T/C (second compound 10 µM, first compound 3.16 µM): 40.2%
viability, T/C (second compound 10 µM, first compound 10 µM): 42.2%

CC(Cn1ccc(-c2ccc(C#N)c(Cl)c2)n1)NC(=O)c1cc(C(C)O)[nH]n1 (stereo unspecified) + CC(Nc1ccc2c(c1)OCCn1cc(N3C(=O)OCC3C(F)F)nc1-2)C(N)=O
IC50 (second compound 0.00316 µM): > 10 µM
IC50 (second compound 0.01 µM): > 10 µM
IC50 (second compound 0.0316 µM): > 10 µM
IC50 (second compound 0.1 µM): > 10 µM
IC50 (second compound 0.316 µM): > 10 µM
IC50 (second compound 1 µM): < 0.0316 µM
viability, T/C [1]: 94.1%
viability, T/C [2]: 88.5%
viability, T/C [3]: 97.6%
viability, T/C [4]: 94.7%
viability, T/C [5]: 98.7%
viability, T/C [6]: 90.6%
viability, T/C [7]: 102%
viability, T/C [8]: 87.6%
viability, T/C [9]: 87.6%
viability, T/C [10]: 106%
viability, T/C [11]: 90.7%
viability, T/C [12]: 88.8%
viability, T/C [13]: 78.4%
viability, T/C [14]: 82.8%
viability, T/C [15]: 86.1%
viability, T/C [16]: 74.8%
viability, T/C [17]: 78.3%
viability, T/C [18]: 87.9%
viability, T/C [19]: 62.1%
viability, T/C [20]: 63.4%
viability, T/C [21]: 68.1%
viability, T/C [22]: 66.1%
viability, T/C [23]: 66.1%
viability, T/C [24]: 65.8%
viability, T/C [25]: 57.7%
viability, T/C [26]: 57.8%
viability, T/C [27]: 56.1%
viability, T/C [28]: 56.8%
viability, T/C [29]: 56.8%
viability, T/C [30]: 46.5%
viability, T/C [31]: 50.2%
viability, T/C [32]: 47.3%
viability, T/C [33]: 46.8%
viability, T/C [34]: 45.3%
viability, T/C [35]: 49.9%
viability, T/C [36]: 47.3%
